The target in assay [1] is RET V804M (Homo sapiens (Human), UniProt P07949, V804M). The experiment in a line: Inhibition of kinase, RET V804M (HTRF KinEASE-TK). Type of assay: biochemical. The conditions noted are these: reaction 20 minutes at room temperature. The procedure:
(§1) Ret wt (Carna, Cat. No. 08-159-10 ug), RET (V804M), Active (Signalchem, Cat. No. R02-12GG), HTRF KinEASE-TK kit (Cisbio, Cat. No. 62TK0PEC), CEP-32496 (MCE, Cat. No. HY-15200), ATP (Sigma, Cat. No. A7699), DMSO (Sigma, Cat. No. D8418-1L), DTT (Sigma, Cat. No. D0632), MgCl2 (Sigma, Cat. No. M1028), 384-well plate (Labcyte, Cat. No. P-05525-BC).
(§2) Formulation of compound: The test compounds were dissolved in DMSO to obtain 10 mM stock solutions, which were then serially diluted 3-fold in DMSO to obtain 10 concentrations. At the time of addition, the compound was further diluted 10-fold with buffer.
(§3) In 5× kinase buffer A, Ret wt or RET V804M kinase was mixed with different concentrations of compounds prepared by pre-dilution for 10 minutes. Each concentration was tested in duplicate. The corresponding substrate and ATP were added, and reaction was performed at room temperature for 20 minutes (negative and positive controls were provided: the negative control was a blank control, and the positive control was CEP-32496). After completion of the reaction, detection reagents (reagents in the HTRF KinEASE-TK kit) were added. After incubating for 30 minutes at room temperature, enzyme activity in the presence of various concentrations of the compounds of the present disclosure was determined by Envision microplate reader, and inhibitory activity of different concentrations of the compounds on enzyme activity was calculated. The inhibitory activity of different concentrations of the compounds on enzyme activity was fitted by Graphpad 5.0 software, and the IC50 value was calculated, wherein A indicates IC50 10 nM, B indicates 10 nM<IC50≤50 nM, C indicates 50 nM<IC50≤100 nM, and D indicates IC50>100 nM.
On the technique in general: TR-FRET usually uses a lanthanide donor and a delayed reading to cut background.

Assay [2] deals with Ba/F3 parental. The experiment in a line: Cytotoxicity assay, Ba/F3 parental (CellTiter-Glo). Type of assay: cell-based. The conditions noted are these: Mus musculus, BaF3; 72 hrs, CTG. From the text: [Worded in the source for another cell line; this cell line is reported under the same test.] (§4) Inhibitory effect of example compounds on the activity of Ba/F3 KIF5B-RET and Ba/F3 FLT3-ITD cells was detected.
(§5) Materials and reagents: fetal bovine serum (FBS) (GIBCO, Cat. No. 10099141), CellTiter-Glo® Luminescent Cell Viability Assay (Promega, Cat #G7572), 96-well clear flat-bottom black-wall plate (Corning®, Cat #3603).
(§6) • 1. Cells in the logarithmic growth phase were harvested and counted with a […]. Cell viability was detected by a trypan blue exclusion method, ensuring that cell viability was 90% or more; • 2. The cell concentration was adjusted to 3000 cells/well; 90 μl of cell suspension was added to each well of the 96-well plate; • 3. The cells in the 96-well plate were incubated overnight under the condition of 37° C., 5% CO2, and 95% humidity. Dilution and Addition of Compound: • 1. 10-fold compound solutions were formulated by 3.16-fold serial dilution starting from a concentration of 10 μM, resulting in 9 concentrations. 10 μL of the compound solutions were added in each well of the 96-well plate seeded with cells in triplicate for each compound concentration; • 2. The cells in the 96-well plate added with compounds were further incubated under the condition of 37° C., 5% CO2, and 95% humidity for 72 hrs, and then CTG analysis was carried out. Plate Reading at the End: • 1. CTG reagent was thawed, and the cell plate was equilibrated at room temperature for 30 minutes; • 2. An equal volume ([…]) of CTG solution was added to each well; • 3. The cell plate was shaken on an orbital shaker for 5 minutes to lyse the cells; • 4. The cell plate was placed at RT for 20 minutes to stabilize the luminescence signal; • 5. Luminescence value was read. Data Processing
(§7) Data were analyzed by GraphPad Prism 5.0 software, and fitted by nonlinear S-curve regression to obtain a dose-response curve, from which IC50 values were calculated, wherein A indicates IC50≤10 nM, B indicates 10 nM<IC50≤50 nM, C indicates 50 nM<IC50≤100 nM, and D indicates IC50>100 nM. cell survival (%)=(Lumtest compound−Lumculture medium control)/(Lumcell control−Lumculture medium control)×100%.
A general note: In ATP-based viability assays light output follows the ATP content of the culture.

Assay [3] has as its system Ba/F3 KIF5B-RET cells. The experiment in a line: Cytotoxicity assay, Ba/F3 KIF5B-RET (CellTiter-Glo). In kind it is cell-based. The conditions noted are these: Mus musculus, BaF3; 72 hrs, CTG.
From the text: as §4, §5, §6, §7

In assay [4] the target is Ret wt (Homo sapiens (Human), UniProt P07949). Nature of the assay: Inhibition of kinase, Ret wt (HTRF KinEASE-TK). In kind it is biochemical. The procedure: as §1, §2, §3
The subject of assay [5] is Ba/F3 FLT3-ITD cells. Nature of the assay: Cytotoxicity assay, Ba/F3 FLT3-ITD (CellTiter-Glo). Type of assay: cell-based. The conditions noted are these: 72 hrs, CTG.
From the text: as §4, §5, §6, §7

Assay [6] deals with Ba/F3 KIF5B-RET^V804M. Nature of the assay: Cytotoxicity assay, Ba/F3 KIF5B-RET V804M (CellTiter-Glo). Type of assay: cell-based. The conditions noted are these: Mus musculus, BaF3; 72 hrs, CTG.
From the text: [Worded in the source for another variant; this variant is reported under the same test.] as §4, §5, §6, §7

The subject of assay [7] is Ba/F3 FLT3-ITD^D835Y. Nature of the assay: Cytotoxicity assay, Ba/F3 FLT3-ITD D835Y (CellTiter-Glo). In kind it is cell-based. The conditions noted are these: Mus musculus, BaF3; 72 hrs, CTG.
From the text: [Worded in the source for another variant; this variant is reported under the same test.] as §4, §5, §6, §7

The subject of assay [8] is Ba/F3 FLT3-ITD^F691L. Nature of the assay: Cytotoxicity assay, Ba/F3 FLT3-ITD F691L (CellTiter-Glo). Type of assay: cell-based. The conditions noted are these: Mus musculus, BaF3; 72 hrs, CTG.
[9] abbreviates: HTRF KinEASE-TK, reaction 20 minutes at room temperature, read-out: Ret wt IC50.

Where two headings read alike, the source gives them in different places. Bounds are passed on as bounds.

Usually IC50 stands for the concentration at which inhibition is half-maximal.

Chain of RET V804M (P07949 29-1114 V804M): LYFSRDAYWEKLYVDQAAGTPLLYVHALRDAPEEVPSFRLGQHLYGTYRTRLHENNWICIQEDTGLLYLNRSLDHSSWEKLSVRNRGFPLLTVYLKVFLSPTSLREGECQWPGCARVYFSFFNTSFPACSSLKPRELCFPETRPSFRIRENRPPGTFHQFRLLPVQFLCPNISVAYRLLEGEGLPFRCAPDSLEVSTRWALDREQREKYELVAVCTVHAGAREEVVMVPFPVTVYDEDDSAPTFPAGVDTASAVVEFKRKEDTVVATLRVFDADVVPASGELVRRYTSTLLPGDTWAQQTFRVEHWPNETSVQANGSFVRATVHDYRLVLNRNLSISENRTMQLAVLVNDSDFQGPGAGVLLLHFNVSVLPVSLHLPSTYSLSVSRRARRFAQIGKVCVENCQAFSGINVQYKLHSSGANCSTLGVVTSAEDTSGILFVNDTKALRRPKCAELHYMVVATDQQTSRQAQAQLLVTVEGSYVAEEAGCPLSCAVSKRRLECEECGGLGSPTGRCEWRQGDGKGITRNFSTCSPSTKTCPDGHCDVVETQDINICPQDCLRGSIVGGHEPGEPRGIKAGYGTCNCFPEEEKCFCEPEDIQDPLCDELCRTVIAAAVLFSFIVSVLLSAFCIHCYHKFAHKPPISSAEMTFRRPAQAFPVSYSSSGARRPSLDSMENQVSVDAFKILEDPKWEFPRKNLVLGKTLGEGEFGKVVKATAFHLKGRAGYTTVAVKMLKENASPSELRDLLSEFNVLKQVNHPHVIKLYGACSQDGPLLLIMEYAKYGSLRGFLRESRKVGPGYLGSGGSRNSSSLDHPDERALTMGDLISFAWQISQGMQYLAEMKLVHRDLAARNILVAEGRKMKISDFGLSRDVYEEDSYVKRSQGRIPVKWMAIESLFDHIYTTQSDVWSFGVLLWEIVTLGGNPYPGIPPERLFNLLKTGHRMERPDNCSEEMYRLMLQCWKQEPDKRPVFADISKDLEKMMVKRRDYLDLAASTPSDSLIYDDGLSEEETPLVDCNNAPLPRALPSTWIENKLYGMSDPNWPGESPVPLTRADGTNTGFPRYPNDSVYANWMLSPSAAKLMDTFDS
Chain of Ret wt (P07949 29-1114): as the sequence (P07949 29-1114 V804M) above, with M776V counted along it

Consider `Cn1cc(-c2cnn3c(-c4ccc(NC(=O)Nc5cc(C(F)(F)F)ccc5F)cc4)cnc3c2)cn1` [Compound T-1, 1-(2-fluoro-5-(trifluoromethyl)phenyl)-3-(4-(7-(1-methyl-1H-pyrazol-4-yl)imidazo[1,2-b]pyridazin-3-yl)phenyl)urea], for which the IC50 was 75.8 nM in assay [1]; 1090 nM in assay [2]; 534 nM in assay [3]; > 100 nM in assay [4] (setting [9]); 2.32 nM in assay [5].

In the case of `Cn1cc(-c2cnn3c(-c4ccc(CC(=O)Nc5cc(C(C)(C)C(F)(F)F)on5)cc4)cnc3c2)cn1` [Compound T-2, 2-(4-(7-(1-methyl-1H-pyrazol-4-yl)imidazo[1,2-b]pyridazin-3-yl)phenyl)-N-(5-(1,1,1-trifluoro-2-methylpropan-2-yl)isoxazol-3-yl)acetamide], the IC50 in assay [1] is 0.4 nM; in assay [2], 3270 nM; in assay [6], 17.9 nM; in assay [3], 4.91 nM; in assay [4] (setting [9]) it was 0.18 nM; in assay [7], 1.22 nM. The IC50 was determined as 0.79 nM in assay [5] and 1.43 nM in assay [8].

With `Cn1cc(-c2cc3ncc(-c4ccc(CC(=O)Nc5cc(C(C)(C)C(F)(F)F)on5)cn4)n3cn2)cn1` [Compound T-3, 2-(6-(7-(1-methyl-1H-pyrazol-4-yl)imidazo[1,2-c]pyrimidin-3-yl)pyridin-3-yl)-N-(5-(1,1,1-trifluoro-2-methylpropan-2-yl)isoxazol-3-yl)acetamide], the IC50 in assay [1] came out at 0.21 nM; in assay [2] it was 8070 nM; in assay [6], 125 nM; in assay [3], 51.2 nM; in assay [4] (setting [9]), 0.13 nM; in assay [7], 9.08 nM. For the same molecule, the values for the IC50 in assay [5] and in assay [8] were 0.2 nM and 13.5 nM, respectively.

As to `Cn1cc(-c2cc3ncc(-c4ccc(CC(=O)Nc5cc(C(C)(C)C(F)(F)F)on5)cc4)n3cn2)cn1` [Compound T-4, 2-(4-(7-(1-methyl-1H-pyrazol-4-yl)imidazo[1,2-c]pyrimidin-3-yl)phenyl)-N-(5-(1,1,1-trifluoro-2-methylpropan-2-yl)isoxazol-3-yl)acetamide], the IC50 in assay [1] was 0.28 nM; in assay [3] it was 7.17 nM; in assay [4] (setting [9]), 0.16 nM; in assay [5] it was 0.49 nM.

Regarding `Cn1cc(Nc2nccn3c(-c4ccc(CC(=O)Nc5cc(C(C)(C)C(F)(F)F)on5)cc4)cnc23)cn1` [Compound T-5, 2-(4-(8-((1-methyl-1H-pyrazol-4-yl)amino)imidazo[1,2-a]pyrazin-3-yl)phenyl)-N-(5-(1,1,1-trifluoro-2-methylpropan-2-yl)isoxazol-3-yl)acetamide], the IC50 in assay [1] is 0.8 nM; in assay [2], 2270 nM; in assay [6] it was 5.43 nM; in assay [3], 2.48 nM; in assay [4] (setting [9]), 0.25 nM; in assay [7] it was 1.43 nM. For the same molecule, the results for the IC50 in assay [5] and in assay [8] were 0.1 nM and 1.43 nM, respectively.

For `Cn1cc(Nc2ccnn3c(-c4ccc(CC(=O)Nc5cc(C(C)(C)C(F)(F)F)on5)cc4)cnc23)cn1` [Compound T-6, 2-(4-(8-((1-methyl-1H-pyrazol-4-yl)amino)imidazo[1,2-b]pyridazin-3-yl)phenyl)-N-(5-(1,1,1-trifluoro-2-methylpropan-2-yl)isoxazol-3-yl)acetamide], the IC50 was 1.04 nM in assay [1]; 2180 nM in assay [2]; 20.9 nM in assay [6]; 6.2 nM in assay [3]; 0.45 nM in assay [4] (setting [9]); 2.38 nM in assay [7]. In addition, the IC50 in assay [5] was determined as 1.05 nM; in assay [8], 1.24 nM.

For `Cn1cc(-c2cnn3c(-c4ccc(CC(=O)Nc5cc(C(C)(C)C(F)(F)F)on5)c(F)c4)cnc3c2)cn1` [Compound T-7, 2-(2-fluoro-4-(7-(1-methyl-1H-pyrazol-4-yl)imidazo[1,2-b]pyridazin-3-yl)phenyl)-N-(5-(1,1,1-trifluoro-2-methylpropan-2-yl)isoxazol-3-yl)acetamide], the IC50 in assay [1] came out at 0.2 nM; in assay [2] it was 1820 nM; in assay [6] it was 10.8 nM; in assay [3], 2.3 nM; in assay [4] (setting [9]) it was 0.15 nM; in assay [7], 1.15 nM. Also, the IC50 in assay [5] amounted to 0.19 nM; in assay [8] it was 1.15 nM.

For the molecule `Cn1cc(-c2cc3ncc(-c4ccc(CC(=O)Nc5cc(C(C)(C)C(F)(F)F)on5)c(F)c4)n3cn2)cn1` [Compound T-8, 2-(2-fluoro-4-(7-(1-methyl-1H-pyrazol-4-yl)imidazo[1,2-c]pyrimidin-3-yl)phenyl)-N-(5-(1,1,1-trifluoro-2-methylpropan-2-yl)isoxazol-3-yl)acetamide], the IC50 in assay [1] was 0.35 nM; in assay [3], 15.4 nM; in assay [4] (setting [9]), 0.1 nM; in assay [4] (read-out: IC50 against Ret wt) it was < 0.2 nM.

Turning to `Cn1cc(-c2cnn3c(-c4ccc(CC(=O)Nc5cc(C(C)(C)C(F)(F)F)on5)cn4)cnc3c2)cn1` [Compound T-9, 2-(6-(7-(1-methyl-1H-pyrazol-4-yl)imidazo[1,2-b]pyridazin-3-yl)pyridin-3-yl)-N-(5-(1,1,1-trifluoro-2-methylpropan-2-yl)isoxazol-3-yl)acetamide], the IC50 was 0.48 nM in assay [1]; > 10000 nM in assay [2]; 559 nM in assay [6]; 60.8 nM in assay [3]; 0.24 nM in assay [4] (setting [9]); 10.6 nM in assay [7]. Also, the IC50 in assay [5] stood at 0.51 nM; in assay [8] it was 15.7 nM.

`Cn1cc(-c2cnc3c(-c4ccc(CC(=O)Nc5cc(C(C)(C)C(F)(F)F)on5)cc4)cnn3c2)cn1` [Compound T-10, 2-(4-(6-(1-methyl-1H-pyrazol-4-yl)pyrazolo[1,5-a]pyrimidin-3-yl)phenyl)-N-(5-(1,1,1-trifluoro-2-methylpropan-2-yl)isoxazol-3-yl)acetamide]: the IC50 in assay [1] turned out to be 0.23 nM; in assay [2], 930 nM; in assay [6] it was 8.15 nM; in assay [3] it was 9.98 nM; in assay [4] (setting [9]) it was 0.1 nM; in assay [7], 1.83 nM. Also, the IC50 in assay [5] is < 0.1 nM; in assay [8] it was 1.02 nM.

Turning to `Cn1cc(-c2cn3ncc(-c4ccc(CC(=O)Nc5cc(C(C)(C)C(F)(F)F)on5)cc4)c3cn2)cn1` [Compound T-12, 2-(4-(6-(1-methyl-1H-pyrazol-4-yl)pyrazolo[1,5-a]pyrazin-3-yl)phenyl)-N-(5-(1,1,1-trifluoro-2-methylpropan-2-yl)isoxazol-3-yl)acetamide], the values for the IC50 in assay [1], in assay [3] and in assay [4] (setting [9]) were 1.12 nM, 9.98 nM and 0.31 nM, respectively.
